Test [1] addresses recombinant human FGFR1 catalytic domain (Homo sapiens (Human), UniProt P11362). The test is described as follows: FGFR Enzyme Activity Assay (LanthaScreen TR-FRET), FGFR1. The class given is biochemical. The note with it: 15 μM ATP, 20 minutes incubation; read-out: FGFR1 Enz FRET IC50.
For another test, the target named is dephosphorylated FGFR1 (Homo sapiens (Human), UniProt P11362). The test is described as follows: FGFR Enzyme Binding Assay (HTRF tracer displacement), FGFR1. The note with it: 5 nM dephosphorylated FGFR1, 60 minute incubation at 22° C.; read-out: FGFR1 Enz Binding IC50.
dephosphorylated FGFR1, sequence (P11362 458-765): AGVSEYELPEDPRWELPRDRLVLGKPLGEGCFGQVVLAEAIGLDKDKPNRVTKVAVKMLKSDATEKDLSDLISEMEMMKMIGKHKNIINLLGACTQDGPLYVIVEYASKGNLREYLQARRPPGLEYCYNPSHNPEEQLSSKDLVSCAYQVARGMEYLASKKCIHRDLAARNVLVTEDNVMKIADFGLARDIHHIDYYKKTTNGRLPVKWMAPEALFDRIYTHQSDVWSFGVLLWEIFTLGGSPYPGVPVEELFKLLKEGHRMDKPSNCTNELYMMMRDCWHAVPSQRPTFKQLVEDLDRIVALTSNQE
The next test concerns the target human wild type FGFR3 (Homo sapiens (Human), UniProt P22607). As to the kind of experiment: FGFR3 pERK Cell Assay. Type of test: cell-based. Particulars: HEK-293 cells, 1 hour compound, 100 ng/ml human FGF-acidic; maximum concentration 5 μM.
Test [2] deals with recombinant human FGFR2 cytoplasmic domain (Homo sapiens (Human), UniProt P21802). The test is described as follows: FGFR Enzyme Activity Assay (LanthaScreen TR-FRET), FGFR2. The class given is biochemical. Particulars: 15 μM ATP, 20 minute incubation; read-out: FGFR2 Enz FRET IC50.
recombinant human FGFR2 cytoplasmic domain, sequence (P21802 402-821): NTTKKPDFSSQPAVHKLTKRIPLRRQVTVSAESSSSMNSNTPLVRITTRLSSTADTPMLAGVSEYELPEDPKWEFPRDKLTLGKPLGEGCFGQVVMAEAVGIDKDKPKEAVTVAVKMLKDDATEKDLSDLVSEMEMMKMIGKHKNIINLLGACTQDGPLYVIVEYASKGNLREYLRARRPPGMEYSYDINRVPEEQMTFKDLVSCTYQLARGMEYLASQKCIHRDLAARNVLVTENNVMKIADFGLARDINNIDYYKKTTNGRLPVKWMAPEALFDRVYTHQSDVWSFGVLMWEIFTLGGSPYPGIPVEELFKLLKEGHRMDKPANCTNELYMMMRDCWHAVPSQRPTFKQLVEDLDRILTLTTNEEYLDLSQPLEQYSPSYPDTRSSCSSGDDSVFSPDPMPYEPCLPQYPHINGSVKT

human wild type FGFR3, sequence (P22607 23-806): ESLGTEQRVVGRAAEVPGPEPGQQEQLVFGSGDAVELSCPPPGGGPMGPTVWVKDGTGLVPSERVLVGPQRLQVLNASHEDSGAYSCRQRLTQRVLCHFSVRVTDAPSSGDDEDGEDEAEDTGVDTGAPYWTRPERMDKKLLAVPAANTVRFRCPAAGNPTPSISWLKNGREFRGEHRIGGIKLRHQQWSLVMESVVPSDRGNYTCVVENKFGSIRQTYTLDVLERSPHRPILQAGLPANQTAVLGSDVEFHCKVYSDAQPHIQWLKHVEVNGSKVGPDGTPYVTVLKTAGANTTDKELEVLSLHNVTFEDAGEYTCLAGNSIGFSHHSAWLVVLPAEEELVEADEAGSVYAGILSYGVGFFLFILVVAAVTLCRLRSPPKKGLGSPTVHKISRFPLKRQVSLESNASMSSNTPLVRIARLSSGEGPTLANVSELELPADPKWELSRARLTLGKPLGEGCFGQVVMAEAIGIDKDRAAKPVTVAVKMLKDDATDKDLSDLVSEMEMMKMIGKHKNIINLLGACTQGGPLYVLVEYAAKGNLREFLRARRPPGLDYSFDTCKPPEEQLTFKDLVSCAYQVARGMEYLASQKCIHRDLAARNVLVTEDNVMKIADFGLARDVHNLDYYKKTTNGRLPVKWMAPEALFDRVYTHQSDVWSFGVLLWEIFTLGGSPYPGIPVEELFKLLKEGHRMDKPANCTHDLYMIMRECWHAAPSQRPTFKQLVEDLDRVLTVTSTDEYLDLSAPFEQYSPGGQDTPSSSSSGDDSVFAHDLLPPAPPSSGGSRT
recombinant human FGFR1 catalytic domain, sequence (P11362 other isoform, or with tags, fused parts or gaps): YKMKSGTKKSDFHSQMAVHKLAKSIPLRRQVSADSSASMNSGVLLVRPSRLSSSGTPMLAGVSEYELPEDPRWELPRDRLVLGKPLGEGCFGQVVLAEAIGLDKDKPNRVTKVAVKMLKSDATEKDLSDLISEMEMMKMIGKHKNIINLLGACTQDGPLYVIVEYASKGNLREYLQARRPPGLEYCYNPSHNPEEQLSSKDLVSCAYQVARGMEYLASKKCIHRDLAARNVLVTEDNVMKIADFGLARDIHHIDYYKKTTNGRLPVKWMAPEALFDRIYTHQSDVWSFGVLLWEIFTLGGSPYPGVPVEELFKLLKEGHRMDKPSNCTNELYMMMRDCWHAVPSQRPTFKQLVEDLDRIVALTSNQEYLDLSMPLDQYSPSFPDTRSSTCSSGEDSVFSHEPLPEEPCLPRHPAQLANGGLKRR

With `C=CC(=O)N1CC(F)(C(=O)N2CCC(n3cc(-c4cnc5ccc(Nc6cc(OC)cc(OC)c6)cc5n4)cn3)CC2)C1` [Example 4, 1-(3-(4-(4-(7-((3,5-dimethoxyphenyl)amino)-quinoxalin-2-yl)-1H-pyrazol-1-yl)piperidine-1-carbonyl)-3-fluoro-azetidin-1-yl)prop-2-en-1-one], the IC50 in test [1] was 0.089 µM; on dephosphorylated FGFR1, 0.033 µM; at human wild type FGFR3, 0.02 µM; in test [2] it was 0.04 µM.

On to `COc1cc(Nc2ccc3ncc(-c4ccc(N5CCN(C(=O)C6CN(C(=O)/C=C/CN(C)C)C6)CC5)nc4)nc3c2)cc(OC)c1` [Example 6, (E)-1-(3-(4-(5-(7-((3,5-dimethoxyphenyl)amino)-quinoxalin-2-yl)pyridin-2-yl)piperazine-1-carbonyl)azetidin-1-yl)-4-(dimethylamino)but-2-en-1-one], for which the IC50 worked out at 0.216 µM in test [1], 0.132 µM at dephosphorylated FGFR1, 0.228 µM at human wild type FGFR3 and 0.124 µM in test [2].

The record behind these values is patent US12351571B2, “Substituted quinoxaline compounds as inhibitors of FGFR tyrosine kinases” (ARRAY BIOPHARMA INC., priority 2018, dated 2025).
